In patent US11207312B2, “Metallo-beta-lactamase inhibitors and methods of use thereof” (priority 2017, dated 2021):
Read-outs that look alike come from different tables or passages of the source.

Columns and labels:
[1] = test system: Escherichia coli expressing NDM-1 (CLB30016); type: cell-based; details: with imipenem 1 μg/ml; 95% inhibition of bacterial growth
Summary of the method: (§1)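 MITC95 denotes the minimal test-compound level that, combined with 1 μg/ml imipenem, blocks 95% of bacterial growth, measured by absorbance. Overnight-grown clinical isolates were diluted 1:100 in CAMHB and incubated with both agents at 35° C for 22–24 h.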

[2] = test system: Serratia marcescens expressing IMP-1 (CL5741); type: cell-based; details: with imipenem 1 μg/ml; 95% inhibition of bacterial growth
Summary of the method: as §1

[3] = test system: Klebsiella pneumoniae expressing VIM-1 (IHMA599644); type: cell-based; details: with imipenem 1 μg/ml; 95% inhibition of bacterial growth
Summary of the method: as §1

VIM-1 = VIM-1 (Pseudomonas aeruginosa (strain ATCC 15692 / DSM 22644 / CIP 104116 / JCM 14847 / LMG 12228 / 1C / PRS 101 / PAO1), UniProt A0A0F7KYQ8); experiment: biochemical; details: CCF2-FA fluorescence assay, 2 hours at 25° C.; read-out: VIM1 IC50
Summary of the method: (§2)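 In pH 7 phosphate buffer (100 mM) with 10 μM ZnSO4 and 0.005% Tween-20, CCF2-FA hydrolysis (1.25 μM) by 1 pM NDM-1, 2 pM IMP-1 or 30 pM VIM-1 was run 2 h at 25° C with inhibitor from 20 to 0.00063 μM. Ex 405/em 460 nm signal fitted to a 4-parameter curve for IC50.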

IMP-1 = IMP-1 (Serratia marcescens, UniProt P52699); experiment: biochemical; details: CCF2-FA fluorescence assay, 2 hours at 25° C.; read-out: IMP1 IC50
IMP-1, sequence (P52699 whole entry, looked up, species assumed): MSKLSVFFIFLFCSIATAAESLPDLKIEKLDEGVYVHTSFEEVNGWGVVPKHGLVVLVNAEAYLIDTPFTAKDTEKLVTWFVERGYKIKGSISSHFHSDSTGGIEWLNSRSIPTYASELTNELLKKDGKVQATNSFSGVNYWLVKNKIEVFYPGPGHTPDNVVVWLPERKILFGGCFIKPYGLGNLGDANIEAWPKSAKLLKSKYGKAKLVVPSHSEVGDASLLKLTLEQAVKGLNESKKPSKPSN
Summary of the method: as §2

[4] = test system: P. aeruginosa MB9799 (efflux-, IMP-1 plasmid); type: cell-based, Pseudomonas aeruginosa; details: efflux − (MB9799) strain; imipenem at 2 μg/mL; in the presence of a class A, C, D serine β-lactamase inhibitor closely related to relebactam
Summary of the method: (§3)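 PAO1-derived isogenic pair (oprD+, inducible AmpC), efflux+ MB5919 or efflux− MB5890 parent, carrying an electroporated IMP-1 plasmid from a clinical isolate. Microbroth MIC with fixed imipenem and/or ceftazidime (usually CLSI breakpoint) plus fixed class A/C inhibitor; MBL inhibitor serially titrated, concentration restoring susceptibility recorded.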

VIM-2 = VIM-2 (Escherichia coli, UniProt Q5U7L7); experiment: biochemical
[5] = test system: P. aeruginosa MB9798 (efflux+, IMP-1 plasmid); details: for MB9798 MITC95 P. aeruginosa uM Efflux WT: efflux + (MB9798) strain, imipenem at 2 μg/mL, in the presence of a class A, C, D serine β-lactamase inhibitor closely related to relebactam; for Efflux ratio: fold difference between efflux+ (MB9798) and efflux− (MB9799) strains
Summary of the method: as §3

NDM-1 = NDM-1 (Klebsiella pneumoniae, UniProt C7C422); experiment: biochemical; type: biochemical; details: CCF2-FA fluorescence assay, 2 hours at 25° C.
NDM-1, sequence (C7C422 whole entry, looked up, species assumed): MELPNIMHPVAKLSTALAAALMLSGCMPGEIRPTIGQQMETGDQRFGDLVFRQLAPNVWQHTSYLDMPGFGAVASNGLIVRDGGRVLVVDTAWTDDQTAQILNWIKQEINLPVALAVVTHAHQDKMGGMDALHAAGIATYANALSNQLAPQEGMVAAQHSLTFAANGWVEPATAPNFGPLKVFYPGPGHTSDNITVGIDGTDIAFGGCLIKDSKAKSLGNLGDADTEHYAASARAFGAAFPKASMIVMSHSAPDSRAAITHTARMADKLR
Summary of the method: as §2

[6] = CCF2-FA fluorescence assay, read-out: VIM2 IC50

SMILES | CLB30016 E. coli MITC95 NDM [1] [µM] | CL5741 S. marcescens MITC95 IMP [2] [µM] | IHMA599644 K. pneumoniae MITC95 VIM [3] [µM] | IC50 (VIM-1) [nM] | IC50 (IMP-1) [nM] | MB9799 MITC95 P. aeruginosa uM Efflux Mutant [4] [µM] | IC50 (VIM-2; [6]) [nM] | MB9798 MITC95 P. aeruginosa uM Efflux WT [5] [µM] | Efflux ratio [5] | IC50 (NDM-1) [nM] | IC50 (VIM-2; VIM2 IC50, CCF2-FA fluorescence assay) [nM]
N[C@@H]1CCCN(c2ccc(S(=O)(=O)N[C@@H]3CCNC3)c(S(N)(=O)=O)c2-c2nnn[nH]2)C1 [Example 86, 4-[(3R)-3-aminopiperidin-1-yl]-N1-[(3R)-pyrrolidin-3-yl]-3-(1H-tetrazol-5-yl)benzene-1,2-disulfonamide] | 0.39 | 1.56 | 1.56 | 3.83 | 58.8 | 1.56 | 14 | 12.50 | 8.00 | 1.37 | 
NC(=O)C1CCN(c2ccc(S(=O)(=O)N[C@@H]3CCNC3)c(S(N)(=O)=O)c2-c2nn[nH]n2)CCN1 (stereo partly drawn) [Example 165, 1-(4-(N-((R)-pyrrolidin-3-yl)sulfamoyl)-3-sulfamoyl-2-(2H-tetrazol-5-yl)phenyl)-1,4-diazepane-5-carboxamide] | 0.20 | 0.20 | 1.56 | 0.38 | 2.43 | 0.78 | 2.35 | 1.56 | 2.00 | 1.21 | 
NS(=O)(=O)c1c(S(=O)(=O)N[C@@H]2CCNC2)ccc(N2CCC(Oc3ccccn3)CC2)c1-c1nnn[nH]1 [Example 110, 4-[4-(pyridin-2-yloxy)piperidin-1-yl]-N1-[(3R)-pyrrolidin-3-yl]-3-(1H-tetrazol-5-yl)benzene-1,2-disulfonamide] | 3.13 | 3.13 | 6.25 | 0.12 | 0.1 | 1.56 | 0.47 | 50.00 | 31.99 | 0.06 | 
C[N+](C)(C)CCCCNc1ccc(S(=O)(=O)N[C@@H]2CCNC2)c(S(N)(=O)=O)c1-c1nnn[nH]1 [Example 72, N,N,N-trimethyl-4-({4-[(3R)-pyrrolidin-3-ylsulfamoyl]-3-sulfamoyl-2-(1H-tetrazol-5-yl)phenyl}amino)butan-1-aminium] | 1.56 | 3.13 | 6.25 | 2.01 | 9.32 | 3.13 | 6.04 | 25.00 | 8.00 | 3.31 | 
NS(=O)(=O)c1c(S(=O)(=O)N[C@@H]2CCNC2)ccc(N2CCC(CF)CC2)c1-c1nnn[nH]1 [Example 89, 4-[4-(fluoromethyl)piperidin-1-yl]-N1-[(3R)-pyrrolidin-3-yl]-3-(1H-tetrazol-5-yl)benzene-1,2-disulfonamide] | 1.56 | 3.13 | 12.50 | 0.21 | 0.61 | 1.56 | 0.66 | 3.13 | 2.00 | 0.21 | 
NC[C@@H](O)CNS(=O)(=O)c1ccc(N[C@H]2C[C@H](N)C2)c(-c2nnn[nH]2)c1S(N)(=O)=O [Example 192, (R)—N1-(3-amino-2-hydroxypropyl)-4-((3-aminocyclobutyl)amino)-3-(1H-tetrazol-5-yl)benzene-1,2-disulfonamide] | 1.56 | 3.13 | 6.25 | 67.5 | 97 | 3.13 |  | 6.25 | 2.00 | 66.3 | 200
NCC1CCN(c2ccc(S(=O)(=O)NC[C@@H](O)CN)c(S(N)(=O)=O)c2-c2nnn[nH]2)CC1 [Example 37, (S)-N1-(3-amino-2-hydroxypropyl)-4-(4-(aminomethyl)piperidin-1-yl)-3-(1H-tetrazol-5-yl)benzene-1,2-disulfonamide] | 0.39 | 0.78 | 0.78 | 0.11 | 3.04 | 0.78 | 2.07 | 0.78 | 1.00 | 1.29 | 
NS(=O)(=O)c1c(S(=O)(=O)N[C@@H]2CCNC2)ccc(N2CC(N3CCCCC3)C2)c1-c1nnn[nH]1 [Example 112, 4-(3-piperidin-1-ylazetidin-1-yl)-N1-[(3R)-pyrrolidin-3-yl]-3-(1H-tetrazol-5-yl)benzene-1,2-disulfonamide] | 0.78 | 1.56 | 3.13 | 2.9 | 15 | 1.56 | 16.6 | 50.00 | 31.99 | 8.98 | 
NC[C@H](N)CNS(=O)(=O)c1ccc(N2CCN(CCO)CC2)c(-c2nnn[nH]2)c1S(N)(=O)=O [Example 49, (S)-N1-(2,3-diaminopropyl)-4-(4-(2-hydroxyethyl)piper-azin-1-yl)-3-(1H-tetrazol-5-yl)benzene-1,2-disulfonamide] | 0.20 | 0.20 | 1.56 | 13.6 | 9.13 | 1.56 | 20.2 | 1.56 | 1.00 | 5.3 | 
NC[C@@H](O)CNS(=O)(=O)c1ccc(N2CCC(O)CC2)c(-c2nn[nH]n2)c1S(N)(=O)=O [Example 120, (R)-N1-(3-amino-2-hydroxypropyl)-4-(4-hydroxypiperidin-1-yl)-3-(2H-tetrazol-5-yl)benzene-1,2-disulfonamide] | 1.56 | 1.56 | 3.13 | 0.26 | 0.76 | 1.56 | 0.79 | 1.56 | 1.00 | 0.56 | 
NS(=O)(=O)c1c(S(=O)(=O)N[C@@H]2CCNC2)ccc(N2CCN(CCO)CC2)c1-c1nn[nH]n1 [Example 162, (R)-4-(4-(2-hydroxyethyl)piperazin-1-yl)-N1-(pyrrolidin-3-yl)-3-(2H-tetrazol-5-yl)benzene-1,2-disulfonamide] | 0.29 | 0.20 | 1.95 | 2.45 | 2.17 | 1.17 | 6.33 | 2.34 |  | 1.2 | 
NCC1C2CCC1CN(c1ccc(S(=O)(=O)NC[C@H](O)CN)c(S(N)(=O)=O)c1-c1nn[nH]n1)C2 (stereo partly drawn) [Example 172, N1-((R)-3-amino-2-hydroxypropyl)-4-((1R,5S,8R)-8-(aminomethyl)-3-azabicyclo[3.2.1]octan-3-yl)-3-(2H-tetrazol-5-yl)benzene-1,2-disulfonamide] | 1.17 | 2.34 | 2.34 | 0.66 | 3.49 | 1.17 | 3.78 | 1.17 | 1.00 | 2.15 | 
